Data taken from PubChem BioAssay (NCI).
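Where inhibition never reached the appropriate level, the endpoint shown equals the highest concentration tested. Otherwise, values were interpolated linearly from a five-concentration, 48-hour dose response in 96-well plates. TGI marks complete inhibition of growth.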

How the values were obtained:
Test in all cases: NCI-60 cell line screen, 48 h
[1] = tested on: A549 NSCLC
[2] = tested on: ACHN renal
[3] = tested on: BT-549 breast
[4] = tested on: HS 578T breast
[5] = tested on: LOX IMVI melanoma
[6] = tested on: MDA-MB-231 breast
[7] = tested on: MDA-MB-435
[8] = tested on: MDA-N
[9] = tested on: NCI-H522 lung
[10] = tested on: NCI/ADR-RES ovarian
[11] = tested on: OVCAR-5 ovarian
[12] = tested on: RPMI-8226 leukemia
[13] = tested on: RXF 393 renal
[14] = tested on: SF-295 CNS
[15] = tested on: SK-MEL-2 melanoma
[16] = tested on: SK-MEL-28 melanoma
[17] = tested on: SW-620 colon
[18] = tested on: TK-10 renal
[19] = tested on: SK-OV-3 ovarian
[20] = tested on: SNB-75 CNS

Measured: TGI

O=c1[nH]nc(Cc2c[nH]c3ccccc23)o1
> 100 µM: [1] | [2] | [3] | [4] | [5] | [6] | [7] | [8] | [9] | [10] | [11] | [12] | [13] | [14] | [15] | [16] | [17] | [18]

COc1ccc(N2C(=O)C3c4[nH]c5ccc(Br)cc5c4C4CCC(C(C)(C)C)CC4C3C2=O)cc1 (stereo not given)
> 100 µM: [1] | [2] | [3] | [4] | [5] | [6] | [7] | [8] | [9] | [10] | [11] | [12] | [13] | [14] | [15] | [16] | [19] | [17] | [18]

CN(/N=C/c1cccc2cccnc12)c1ccc(Cl)cc1[N+](=O)[O-]
> 100 µM: [1] | [2] | [3] | [4] | [6] | [7] | [8] | [9] | [10] | [11] | [12] | [13] | [14] | [15] | [19] | [20] | [17] | [18]

CS(=O)(=O)c1ccc(N=C/C=C/Nc2ccc(S(C)(=O)=O)cc2)cc1
> 100 µM: [1] | [2] | [3] | [4] | [6] | [7] | [8] | [9] | [10] | [11] | [12] | [13] | [14] | [15] | [16] | [19] | [20] | [17] | [18]

S=C1CCSc2c(ccc3ccccc23)N1
> 100 µM: [1] | [2] | [3] | [4] | [5] | [6] | [7] | [8] | [9] | [10] | [11] | [13] | [14] | [16] | [19] | [20] | [18]

CCOC(=O)C1=CCOc2cc(N(C)C)ccc21
> 100 µM: [1] | [2] | [3] | [4] | [5] | [6] | [7] | [8] | [9] | [10] | [12] | [13] | [14] | [15] | [16] | [19] | [20] | [17] | [18]
